Results as given in patent publication US20180272270A1, “AMINE COMPOUNDS FOR SELECTIVELY REMOVING HYDROGEN SULPHIDE” (BASF SE, priority 2015, published 2018).

Test: Dynamic viscosity of the amines (Anton Paar Stabinger SVM3000 viscometer)
Assay type: physicochemical

SMILES	Dynamic viscosity (20 ° C.) [mPa · s]	Dynamic viscosity (60 ° C.) [mPa · s]	Dynamic viscosity (80 ° C.) [mPa · s]	Dynamic viscosity (40 ° C.) [mPa · s]
CC(C)(C)NCCOCCO [TBAEE, 2-(2-tert-butylaminoethoxy)ethanol, reference compound]	58.4	6.9	3.6	–
CN(C)CCOCCNC(C)(C)C [TBAEEDA, 2-(2-tert-butylaminoethoxy)ethyl-N,N-dimethylamine]	5.4	1.6	1.1	2.5
